Columns and labels:
[1] = Galactose titration at room temperature on Nanodrop3300 fluorimeter; format: binding; conditions: ^e noisy data
Description: (§1) In addition to the Roche LightCycler, which has a limited choice of emission wavelengths, data for selected mutants also was measured at room temperature on a Nanodrop3300 (Thermo Scientific) fluorimeter, which records full emission spectra. Emission intensities at a particular wavelength were extracted by integration of the spectral emission intensities over a 20-nm interval centered on that wavelength.
(§2) Signals S (either single-wavelength emission intensities, LT, or ratios of intensities at two wavelengths, Rig) were fit to ligand-binding isotherms:
(§3) where [L] is the ligand concentration and Kd the dissociation constant corresponding to ^appKd or ^trueKd for fits to R12 (weighted by the relative contributions of ^satβ at the two different wavelengths) and Iλ respectively. For a given isothermal titration, values for ^appKd and ^true Kd were obtained using a non-linear fitting algorithm in which these two parameters were simultaneously fit to the three experimental binding isotherms using equations 29 and 30, with the two monochromatic isotherms sharing the same ^trueKd value. Three separate pairs of ^apoβ and ^satβ were fit in this procedure.

[2] = Glucose titration at room temperature on Nanodrop3300 fluorimeter; format: binding
Description: as §1, §2, §3

[3] = Thermal denaturation followed by fluorescence ratio, two-state fit; format: physicochemical; conditions: thermal stability of the 183C acrylodan conjugate mutant
Description: (§4) The titration series were mixed with GGBP183C⋅acrylodan or BD_SM4⋅acrylodan conjugates in 384-well microtiter plates. The temperature dependence of the titrations was measured in a real-time PCR machine (Roche LightCycler 480) by determining the ratio of fluorescence emission intensities at 488, 510, and 580 nm (excitation at 440 nm) as a function of temperature (290-370K). Temperatures were advanced in 1K steps. At each temperature data was collected for at 1-second intervals for 60 seconds at which point the signal had relaxed to a steady value associated with the new temperature. Collection times were adjusted to minimize photobleaching (which was not detectable under these experimental conditions). Data reduction software was developed to convert these observations into time-independent datasets that record fluorescence as a function of temperature for each well and associate wells with their concentration of titrant and additive. Management tools were developed to maintain a database of titrations and their analyses.
Fits of these equation systems to experimental observations such as shown in FIG. 5 require good initial estimates of the parameters. These can then be refined using multi-dimensional conjugate gradient methods. To obtain local fits for protein thermostability in the absence of ligand we solve
This gives excellent fits (FIG. 7).

[4] = Fluorescence emission response to ligand binding; set-up: key to Response Intensity^c: +, increases in response to ligand; —: decreases; 0, no change in the glucose titration; key to Response Shape^b: m, monochromatic; d, dichromatic (i.e. spectral shape changes); 0, no change in the glucose titration; conditions: glucose titration; Nanodrop3300; room temperature
Description: as §4, §1

[5] = Galactose affinities of the mutants that bind glucose (Roche LightCycler); format: binding; conditions: trueKd at 25° C., 183C acrylodan conjugates, read-out: Kd^298K(galactose)/mM
Text: (§5) Analysis of mutant affinity values: Isothermal glucose titrations were extracted from the fluorescent landscape or emission datasets as described above. Monochromatic emission intensities Iλ. (these intensities correspond to a bandpass intensity recorded with a physical filter in the case of the Roche LightCycler) were fit to
(§6) where ^apoIλ2 ^apoIλ2 and ^satIλ2^satIλ2 are the emission intensities of the monochromatic signal at wavelength λ2λ2 of the ligand-free and ligand-bound protein, respectively. Equation 28 illustrates that the ^appKd ^appKd values obtained by fits of 25 to ratiometric signals are wavelength dependent. To obtain wavelength-independent values needed for comparison of mutant proteins, it is necessary to simultaneously fit ^appKd ^appKd to the ratiometric signal and ^trueKd ^trueKd to the two monochromatic signals. For a given isothermal titration, values for ^appKd ^appKd and ^trueKd ^trueKd were obtained using a non-linear fitting algorithm in which these two parameters were simultaneously fit to the three experimental binding isotherms using equations 23 and 27, with the two monochromatic isotherms sharing the same ^trueKd ^trueKd value. Three separate pairs of linear ^apoβ ^apoβ and ^satβ ^satβ baselines were fit in this procedure. TABLES 1-5 record the ^trueKd ^trueKd values at 25° C., obtained by analysis of Roche LightCycler data in 488 nm and 510 nm channels. The uncertainty of the fit (‘error’) was obtained using a boot-strapping technique in which 37% of the data was replicated. In all cases, no binding was recorded if one of ^appKd ^appKd or ^trueKd ^trueKd exceeded 200 mM. The glucose constant of GGBP183 C-acrylodan is 4.21±0.08 mM at 25° C.
The galactose affinities for those mutants that bind glucose were also determined.

[6] = Isothermal glucose titrations from fluorescent landscapes (Roche LightCycler); format: binding
Description: as §4
The response of acrylodan to glucose binding was separated from the effects of thermal denaturation by extracting binding isotherms within the temperature range where the apo-protein remains >99% folded (T<320 K; FIG. 7). Within this temperature range, binding isotherms were constructed by extracting fluorescence values across different wells, each containing different glucose concentrations, at a given temperature, and fit individually with high accuracy to isotherms (FIG. 8):
using linear baselines which vary individually in accordance with the tilt of the S, S1, and S2 baseplanes that correspond the saturated glucose complex. The individually fit Kd(T) values were converted into ΔGb(T) and fit to the Gibbs-Helmholtz equation 9 (FIG. 9).
as §5, §6

[7] = as above; format: binding; conditions: 37° C.; mutations in GGBP183C⋅acrylodan; read-out: glucose Kd values at 37° C.
[8] = apparent, ratiometric signal at the listed wavelength pair, read-out: Affinities (mM)^d Galactose ^appKd
[9] = from monochromatic signals, read-out: Affinities (mM)^d Galactose ^trueKd
[10] = apparent, ratiometric signal at the listed wavelength pair, read-out: Affinities (mM)^d Glucose aPPKa
[11] = from monochromatic signals, read-out: Affinities (mM)^d Glucose trueKa
[12] = trueKd at 25° C., 183C acrylodan conjugates, LightCycler 488 nm and 510 nm channels, ± = bootstrap uncertainty of fit, read-out: Kd^298K(glucose)/mM
[13] = 25° C., read-out: glucose affinities

A155F: GGBP 183C acrylodan conjugate with mutation A155F
Kd [1, 8]: 0.82 mM | Kd [1, 9]: 0.93 mM | Kd [2, 10]: 0.06 mM | Kd [2, 11]: 0.06 mM | Tm/K [3]: 321 K | Response Intensity^c [4]: — | Response Shape^b [4]: m

A155H: GGBP 183C acrylodan conjugate with mutation A155H
Tm/K [3]: 314 K | Kd [5]: 17.7 ± 2.1 mM | Kd [6, 12]: 13.5 ± 2.5 mM

A155K: GGBP 183C acrylodan conjugate with mutation A155K
Tm/K [3]: 318 K

A155L: GGBP 183C acrylodan conjugate with mutation A155L
Tm/K [3]: 320 K

A155M: GGBP 183C acrylodan conjugate with mutation A155M
Kd [1, 8]: 6.7 mM | Kd [1, 9]: 8.7 mM | Kd [2, 10]: 0.05 mM | Kd [2, 11]: 0.05 mM | Tm/K [3]: 321 K | Response Intensity^c [4]: — | Response Shape^b [4]: m

A155Q: GGBP 183C acrylodan conjugate with mutation A155Q
Tm/K [3]: 321 K

A155S: GGBP 183C acrylodan conjugate with mutation A155S
Kd [2, 10]: 0.31 mM | Kd [2, 11]: 0.35 mM | Tm/K [3]: 321 K | Response Intensity^c [4]: — | Response Shape^b [4]: m?

A155W: GGBP 183C acrylodan conjugate with mutation A155W
Tm/K [3]: 322 K

A155Y: GGBP 183C acrylodan conjugate with mutation A155Y
Tm/K [3]: 321 K

D14A: GGBP 183C acrylodan conjugate with mutation D14A
Tm/K [3]: 317 K | Kd [5]: 90 ± 21 mM

D14E: GGBP 183C acrylodan conjugate with mutation D14E
Tm/K [3]: 318 K

D14H: GGBP 183C acrylodan conjugate with mutation D14H
Tm/K [3]: 317 K

D14L: GGBP 183C acrylodan conjugate with mutation D14L
Tm/K [3]: 311 K

D14N: GGBP 183C acrylodan conjugate with mutation D14N
Tm/K [3]: 317 K

D14T: GGBP 183C acrylodan conjugate with mutation D14T
Tm/K [3]: 316 K

D154A: GGBP 183C acrylodan conjugate with mutation D154A
Tm/K [3]: 320 K

D154N: GGBP 183C acrylodan conjugate with mutation D154N
Tm/K [3]: 318 K

D236A: GGBP 183C acrylodan conjugate with mutation D236A
Tm/K [3]: 320 K

D236N: GGBP 183C acrylodan conjugate with mutation D236N
Tm/K [3]: 320 K

F16A: GGBP 183C acrylodan conjugate with mutation F16A
Tm/K [3]: 319 K

F16L: GGBP 183C acrylodan conjugate with mutation F16L
Tm/K [3]: 321 K

GGBP16C-acrylodan: F16C mutant of E. coli GGBP, acrylodan conjugate
Kd [6, 13]: ~0.2 mM

GGBP16C-badan: F16C mutant of E. coli GGBP, badan conjugate
Kd [6, 13]: ~0.2 mM

H152A: GGBP 183C acrylodan conjugate with mutation H152A
Tm/K [3]: 316 K

H152F: GGBP 183C acrylodan conjugate with mutation H152F
Kd [7]: ~17 mM | Kd [2, 10]: 15 mM | Kd [2, 11]: 16 mM | Tm/K [3]: 321 K | Kd [6, 12]: 21.1 ± 0.9 mM | Response Intensity^c [4]: — | Response Shape^b [4]: d

H152K: GGBP 183C acrylodan conjugate with mutation H152K
Tm/K [3]: 319 K

H152N: GGBP 183C acrylodan conjugate with mutation H152N
Kd [1, 8]: 21 mM | Kd [1, 9]: 21 mM | Kd [7]: ~14 mM | Kd [2, 10]: 20 mM | Kd [2, 11]: 15 mM | Tm/K [3]: 322 K | Kd [6, 12]: 18.8 ± 1.3 mM | Response Intensity^c [4]: — | Response Shape^b [4]: d

H152Q: GGBP 183C acrylodan conjugate with mutation H152Q
Kd [7]: ~36 mM | Kd [2, 10]: 4.6 mM | Kd [2, 11]: 5.1 mM | Tm/K [3]: 322 K | Kd [6, 12]: 25.8 ± 2 mM | Response Intensity^c [4]: — | Response Shape^b [4]: d

K92A: GGBP 183C acrylodan conjugate with mutation K92A
Tm/K [3]: 323 K

M182W: GGBP 183C acrylodan conjugate with mutation M182W
Tm/K [3]: 322 K

N91A: GGBP 183C acrylodan conjugate with mutation N91A
Tm/K [3]: 326 K

N211A: GGBP 183C acrylodan conjugate with mutation N211A
Tm/K [3]: 317 K

N211F: GGBP 183C acrylodan conjugate with mutation N211F
Tm/K [3]: 323 K

N211H: GGBP 183C acrylodan conjugate with mutation N211H
Tm/K [3]: 320 K

N211K: GGBP 183C acrylodan conjugate with mutation N211K
Tm/K [3]: 315 K

N211M: GGBP 183C acrylodan conjugate with mutation N211M
Tm/K [3]: 317 K

N211Q: GGBP 183C acrylodan conjugate with mutation N211Q
Kd [2, 10]: 29 mM | Kd [2, 11]: 22 mM | Tm/K [3]: 317 K | Response Intensity^c [4]: — | Response Shape^b [4]: d

N211S: GGBP 183C acrylodan conjugate with mutation N211S
Tm/K [3]: 319 K

N211W: GGBP 183C acrylodan conjugate with mutation N211W
Tm/K [3]: 328 K

N211Y: GGBP 183C acrylodan conjugate with mutation N211Y
Tm/K [3]: 316 K

N256A: GGBP 183C acrylodan conjugate with mutation N256A
Tm/K [3]: 324 K

N256D: GGBP 183C acrylodan conjugate with mutation N256D
Tm/K [3]: 321 K

R158A: GGBP 183C acrylodan conjugate with mutation R158A
Tm/K [3]: 322 K

R158K: GGBP 183C acrylodan conjugate with mutation R158K
Tm/K [3]: 318 K

Y10A: GGBP 183C acrylodan conjugate with mutation Y10A
Tm/K [3]: 326 K
